According to patent publication US6528496B1, “Compositions treating, preventing or reducing elevated metabolic levels” (priority 1992, dated 2003):
“Also recorded” adds a separate entry of the source.

Legend:
serum MMA and HC [1] = test: Parenteral B12 treatment of geriatric outpatients with low and low/normal serum B12, response of serum MMA and HC (Example 3); assay type: in vivo, human; conditions: weekly injections of 1.0 mg B12
Procedure: A study was conducted with 152 elderly outpatient subjects to measure the prevalence of B12 deficiency in geriatric outpatients as determined by both low serum B12 levels and elevations of MMA and HC, and to determine the response to B12 treatment. Blood samples were obtained on 152 consecutive geriatric outpatients, ages 65-99. Control values were determined from 100 subjects, ages 17-65. The significance of the results marked as “**” in Table 2 are as follows: B12 levels of<200 pg/ml; folate<3.8 ng/ml; homocysteine>16.2 uM; MMA>271 nM; CT>342 nM; and 2-MCA>228 nM. Serum MMA, HC, CT, and 2-MCA levels were measured as described in Example 1. Serum B12 and folate were measured as described in Example 1 using a Corning Immophase kit (CIBA-Corning, Medfield, Mass.) with the normal range defined as 200-800 pg/ml for B12 and 3.8 ng/ml for folate. After evaluation, patients received weekly parenteral cyanocobalamin injections (1,000 ug IM) for 8 weeks, followed by monthly injections. Repeat laboratory and clinical assessments were administered at 8 weeks and at 6 months.
Patients with low and low/normal serum B12 levels were treated with weekly injections of 1.0 mg B12. […] It appears that the true prevalence of previously unrecognized B12 deficiency in this elderly population was at least 14.5%.

serum MMA and HC [2] = test: Parenteral B12 treatment of geriatric nursing home patients with serum B12<300 pg/ml, response of serum MMA and HC (Example 4); assay type: in vivo, human
Procedure: A study was conducted with 212 elderly nursing home patients to determine serum B12, folate, MMA, and HC levels (Table 3). The significance of the results shown in Table 3 marked with “**” are as described for Table 2 (Example 3). The control group consisted of 100 subjects between the ages of 17-65 years.

[3] = 2.0 mg oral dose, in the absence of intrinsic factor; cited from earlier work
[4] = parenteral 1 mg per week for 8 weeks, nursing home patients with serum B12<300 pg/ml

Q: What does the source list for cyanocobalamin [B12]?
A: effect on elevated metabolite levels (serum MMA and HC, FIGS. 4 and 5) (serum MMA and HC [1]): fall to or towards normal; also recorded: did not fully respond; effect on elevated serum HC levels (FIG. 10) (serum MMA and HC [2]; [4]): fall to or towards normal; effect on elevated serum MMA levels (FIG. 9) (serum MMA and HC [2]; [4]): fall to or towards normal; response of elevated metabolite levels to B12 treatment (serum MMA and HC [2]; some of the nursing home patients with elevated metabolite levels): did not fully respond; fraction of oral dose absorbed by diffusion [3]: approximately 1%
